Data taken from US7141661B2, “Non-steroidal anti-inflammatory drug activated gene with anti-tumorigenic properties” (The United States of America as represented by the …, priority 2000, dated 2006).

Assays:
Format in all cases: cell-based, human
HCT-116 cells [1] = assay: Apoptosis and cell cycle by PI staining / FACS in HCT-116 cells
Description: To determine whether NAG-1 gene expression is associated with NSAID-induced apoptosis or altered cell cycle kinetics, flow cytometric analysis of the distribution of cells at various stages of the cell cycle was performed. Apoptosis and cell cycle kinetics of INDO-treated HCT-116 cells were measured at different time points. HCT-116 cells were treated with INDO, stained with PI, and analyzed by flow cytometry. Seven thousand five hundred cells were examined by flow cytometry by gating on an area versus width dot plot to exclude cell debris and cell aggregates. Apoptosis is represented by the fold increase in sub-G1 population over 0 hr treatment.
The DNA content for NSAIDs, PPARγ ligand, and vehicle treated HCT-116 cells was determined by FACS. Cells were plated at a density of 4×10^5 cells/well in 2 ml of medium in 6 well plates, incubated for 16 h, and then treated with NSAIDs or TGZ in the presence of serum. After treatment, the cells were harvested, washed with PBS, fixed by the slow addition of cold 70% ethanol to a total of 1 ml, and stored overnight at 4° C. The fixed cells were pelleted, washed once with PBS, and stained in 1 ml of 20 μg/ml of propidium iodide (PI), 1 mg/ml RNase in PBS for 20 min. Seven thousand five hundred cells were examined by flow cytometry using Becton Dickinson FACSort equipped with CellQuest software, by gating on an area versus width dot plot to exclude cell debris and cell aggregates. Each cell cycle distribution was analyzed by the McCycle program using one cell cycle parameter. Apoptosis was measured based on the level of sub-diploid DNA contained in cells following treatment with NSAIDs or TGZ using CellQuest software.
Northern analysis was performed using NAG-1 and β-actin as probes. The data represent relative expression of NAG-1 mRNA over the control (1.0). Each NSAID was tested at 3 different concentrations and maximally effective concentration used for apoptosis determination. Apoptosis ratio by PI staining was measured by FACS. […] The data represent relative apoptosis ratio over vehicle treatment by PI staining methods. TACS™ Annexin V-FITC kit was also used to confirm apoptosis.

HCT-116 cells [2] = assay: Apoptosis by FACS in HCT-116 cells stably transfected with vector, sense or antisense NAG-1; settings: 100 μM, 48 hr
From the text: (§1) HCT-116 cells were stably transfected with an expression vector containing the full-length NAG-1 coding region in the sense and antisense orientations. The sense cells expressed NAG-1 protein at a level that was 2.0–2.5 fold greater than the vector transfected cells, while the anti-sense cells expressed slightly lower NAG-1 levels compared to vector transfected cells. […] The full-length NAG-1 (sense strand and antisense strand) was cloned into the pCDNA3.1 expression vector and transfected into HCT-116 cells. Each cell was grown under G418 (500 μg/ml) for 2 weeks and treated with either vehicle or INDO (100 μM). After growing for 48 hr, the media was harvested, concentrated, and subjected to Western analysis. Thirty μg of total protein was loaded in each lane, and the arrow indicates the NAG-1 protein band.
Despite repeated attempts, construction of NAG-1 highly expressing cells which may be linked to high rates of apoptosis were not generated (data not shown). […] This could be due to effects on cell proliferation and/or an increase in cell death. […] The stably transfected cells were then incubated with 100 μM indomethacin for 48 hr and the percentage of cells in apoptosis determined by FACS analysis as described in Example 1. The data shown in FIG. 6 represent mean±S.D. Indomethacin enhanced the percentage of apoptotic cells by approximately 2 fold in the vector-HCT-116 and sense cells.

NAG-1 [3] = assay: Western analysis of NAG-1 in stably transfected HCT-116 cells; settings: antisense HCT-116 cells, 100 μM, 48 hr
From the text: as §1

NAG-1 [4] = assay: Northern blot analysis of NAG-1 mRNA expression in HCT-116 cells; settings: HCT-116, 100 μM INDO, 48 hr, no serum

## COc1ccc2c(c1)c(CC(=O)O)c(C)n2C(=O)c1ccc(Cl)cc1 [Indomethacin]
HCT-116 cells [1]; HCT-116, 36 hr exposure
  Increase in apoptosis (sub-G1 population over 0 hr): ~3 fold
HCT-116 cells [1]; HCT-116, 48 hr in presence of serum, maximally effective concentration, FACS
  Apoptosis (PI Staining), relative apoptosis ratio over vehicle: 2.9 ± 0.121
HCT-116 cells [1]; HCT-116, 60 hr exposure
  Increase in apoptosis (sub-G1 population over 0 hr): 4.5 fold
HCT-116 cells [1]; HCT-116, presence of serum, TGZ 5 μM
  Earliest time at which apoptosis was observed: 36 h
HCT-116 cells [1]; HCT-116, TGZ 5 μM
  Time point at which G1 arrest was seen: 12 h
HCT-116 cells [2]; antisense HCT-116 cells
  Stimulation of apoptosis: did not stimulate apoptosis
HCT-116 cells [2]; sense NAG-1 HCT-116 cells
  Enhancement of percentage of apoptotic cells: approximately 2 fold
HCT-116 cells [2]; vector-HCT-116 cells
  Enhancement of percentage of apoptotic cells: approximately 2 fold
NAG-1 [3]
  Expression of NAG-1: did not stimulate apoptosis or increase the expression of NAG-1
NAG-1 [4]
  NAG-1 mRNA expression: further increase
